Data on two compounds can be found in BindingDB's records for doi:10.1016/S0960-894X(01)80110-4 (1994).

The assay can be described thus: Activity against thromboxane A2 receptor evaluated by aggregation of human platelets.

As a reminder, the EC50 is the midpoint of the concentration-response curve. `CCCCCC(O)/C=C/[C@@H]1[C@@H](C/C=C\CCCC(N)=O)[C@@H]2C[C@H]1OC(=O)O2` (stereo partly drawn) [(Z)-7-[(1R,5S,6R,7R)-7-((E)-3-Hydroxy-oct-1-enyl)-3-oxo-2,4-dioxa-bicyclo[3.2.1]oct-6-yl]-hept-5-enoic acid amide] displayed an EC50 of 3110 nM.

Compound `CCCCCC(O)/C=C/[C@@H]1[C@@H](C/C=C\CCCC(=O)O)[C@@H]2C[C@H]1OC(=O)O2` (stereo partly drawn) [(Z)-7-[(1R,5S,6R,7R)-7-((E)-3-Hydroxy-oct-1-enyl)-3-oxo-2,4-dioxa-bicyclo[3.2.1]oct-6-yl]-hept-5-enoic acid] gave an EC50 of 24 nM.
